Series [1] is described as follows: physchem.
A short description of the next series: in vivo. To be noted: Wistar Han, rat, urine, iv, 1 mg/kg.
The nature of series [2]: physchem. To be noted: buffer, pH 7.4.
Series [3] can be described thus: Tmax in cynomolgus monkey at 3 mg/kg via oral gavage by LC-MS/MS analysis. The class given is ADME, organism-based, Macaca fascicularis. To be noted: in vivo.
Series [4] can be described thus: Volume of distribution at steady state in Wistar Han rat at 1 mg/kg, iv via bolus dose measured up to 24 hrs post dose by LC-MS/MS analysis. It is filed as ADME, organism-based. To be noted: in vivo, read-out: Vdss.
Series [5] is described as follows: Tmax in Wistar Han rat at 3 mg/kg via oral gavage by LC-MS/MS analysis. The class given is ADME, organism-based. The conditions noted are these: in vivo.
For series [6] the following is noted: rat, in vivo, iv, 1 mg/kg, 24 h.
Series [7] in a line: Thermodynamic solubility of the compound in sodium phosphate buffer at pH 7.4 after 24 hrs by nitrogen detection method. The class given is physicochemical. To be noted: read-out: Therm_solubility.
The nature of series [8]: Volume of distribution at steady state in cynomolgus monkey at 1 mg/kg, iv via bolus dose measured up to 24 hrs post dose by LC-MS/MS analysis. It is filed as ADME, organism-based, Macaca fascicularis. To be noted: in vivo, read-out: Vdss.
Series [9] in a line: Cmax in cynomolgus monkey at 3 mg/kg via oral gavage measured up to 24 hrs post dose by LC-MS/MS analysis. It is filed as ADME, organism-based, Macaca fascicularis. The conditions noted are these: in vivo. Set-up: dose 3 mg/kg, route oral.
The nature of series [10]: Cmax in Wistar Han rat at 3 mg/kg via oral gavage measured up to 24 hrs post dose by LC-MS/MS analysis. It is filed as ADME, organism-based. More on the design: dose 3 mg/kg, route oral. The conditions noted are these: in vivo.
For series [11], the system named is Rattus norvegicus. In words: (§1) Oral bioavailability in Wistar Han rat at 3 mg/kg via gavage measured up to 24 hrs post dose by LC-MS/MS analysis. The conditions noted are these: in vivo, 24 h. The class given is ADME, organism-based.
Series [12] in a line: AUC (0 to 24 hrs) in cynomolgus monkey at 3 mg/kg via oral gavage measured up to 24 hrs post dose by LC-MS/MS analysis. It is filed as ADME, organism-based, Macaca fascicularis. Set-up: time < 24 hr, dose 3 mg/kg, route oral. The conditions noted are these: in vivo.
Series [13] can be described thus: Oral bioavailability in cynomolgus monkey at 3 mg/kg via gavage measured up to 24 hrs post dose by LC-MS/MS analysis. It is filed as ADME, organism-based, Macaca fascicularis. The conditions noted are these: in vivo.
The nature of series [14]: AUC (0 to 24 hrs) in cynomolgus monkey at 1 mg/kg, iv via bolus dose measured up to 24 hrs post dose by LC-MS/MS analysis. The class given is ADME, organism-based, Macaca fascicularis. Set-up: time < 24 hr, dose 1 mg/kg, route intravenous. The conditions noted are these: in vivo.
In series [15] the test system is Rattus norvegicus. In words: (§2) AUC (0 to 24 hrs) in Wistar Han rat at 3 mg/kg via oral gavage measured up to 24 hrs post dose by LC-MS/MS analysis. It is filed as ADME, organism-based. Set-up: dose 3 mg/kg, time < 24 hr, route oral. The conditions noted are these: in vivo, 24 h.
The subject of series [16] is Rattus norvegicus. Put plainly: (§3) AUC (0 to 24 hrs) in Wistar Han rat at 1 mg/kg, iv via bolus dose measured up to 24 hrs post dose by LC-MS/MS analysis. It is filed as ADME, organism-based. Set-up: time < 24 hr, dose 1 mg/kg, route intravenous. To be noted: in vivo, 24 h.
The nature of series [17]: Drug excretion in cynomolgus monkey urine assessed as compound recovered at 1 mg/kg, iv measured over 24 hrs by LC/MS analysis. It is filed as ADME, organism-based, Macaca fascicularis. To be noted: read-out: Drug recovery.
Series [18] in a line: as §1. To be noted: Wistar Han, in vivo. The class given is ADME, organism-based.
The nature of series [19]: as §2. The conditions noted are these: Wistar Han, in vivo. It is filed as ADME, organism-based. More on the design: dose 3 mg/kg, time < 24 hr, route oral.
The nature of series [20]: as §3. Set-up: time < 24 hr, dose 1 mg/kg, route intravenous. The conditions noted are these: Wistar Han, in vivo. The class given is ADME, organism-based.

Converted amounts (≈) assume the structure as drawn. Where only a bound is given, the exact number is not on record here.

One may read the pKa as the pH at which an ionisable group is half protonated. One may read the logD as the decadic logarithm of the distribution of all forms, ionised or not, between an organic phase and buffer at a given pH. Regarding `O=C(O)c1c[nH]c2cc(Cl)c(-c3ccc(OCCCN4CCOCC4)cc3)cc12`, the pKa in the series “physchem [1]” lay in the range of 5.4 to 7.1. The same compound returned a dose excreted at 24 h in the series “in vivo” of 12%. The compound further came in with a logD in the series “physchem [2]” of 1.8.

Compound `O=C(O)c1c[nH]c2cc(Cl)c(-c3ccc(OCCO)cc3)cc12` came in with a pKa in the series “physchem [1]” of 4.8. Moreover, the dose excreted at 24 h in “in vivo” amounted to 10%. The same compound showed a logD in “physchem [2]” of 1.1.

As for `N#Cc1cc2[nH]cc(C(=O)O)c2cc1-c1ccc(C2(O)CCC2)cc1`, in “physchem [1]”, the pKa was determined as 4.6. For the same compound, the logD in “physchem [2]” was 1.1.

As for `O=C(O)c1c[nH]c2cc(F)c(-c3ccc(C4(O)CCC4)cc3)c(F)c12`, the pKa in the series “physchem [1]” came out at 4.9. This compound also returned a dose excreted at 24 h in “in vivo” of 10.7%. This compound also returned a logD in “physchem [2]” of 1.3.

In the series “physchem [1]”, `O=C(O)c1c[nH]c2cc(Cl)c(-c3ccc(C4CCCCO4)cc3)cc12` (stereo unspecified) gave a pKa of 4.9. The same compound displayed a pH-dependent lipophilicity (logD) in the series “physchem [2]” of 2.8.

As to `COCCOc1ccc(-c2cc3c(C(=O)O)c[nH]c3cc2Cl)cc1`, the pKa in the series “physchem [1]” was found to be 5. In the series “physchem [2]”, this compound came in with a log distribution coefficient (logD) of 1.8.

For orientation: Tmax means the time from dosing to the highest level. As usually defined, the Cmax is the highest concentration seen after dosing. As a reminder, the AUC(0-t) is exposure summed from dosing to a finite time, without extrapolation to infinity. The term bioavailability denotes dose-corrected exposure relative to a reference, in per cent. As usually defined, the AUC is the area under the concentration-time curve, a measure of exposure. `COc1nc(N(C)C)ccc1-c1cc2c(C(=O)O)c[nH]c2cc1Cl`: the values for the Tmax in series [3] and in [5] were 1.5 h and 5.5 h, respectively. The Vd in series [4] came to 0.1 L/kg; in [8] it was 0.46 L/kg. The same compound showed a Drug recovery in series [6] of 1 ng/mL. The solubility thermodynamic at 24 h in [7] is 120 µM (≈ 41.5 µg/mL). Also, the pKa in “physchem [1]” was 2.6 to 4.9. Moreover, the results for the maximum concentration (Cmax) in series [9] and in series [10] were 2540 ng/mL and 10200 ng/mL, respectively. The F with Rattus norvegicus [11] stood at 52%. In addition, the AUC(0-t) at 24 h in series [12] was found to be 31200 ng·h/mL; in series [14], 15500 ng·h/mL. Moreover, the bioavailability in series [13] turned out to be 67%. In addition, the pH-dependent lipophilicity (logD) in the series “physchem [2]” was 2.3. Further, the values for the AUC in the series on Rattus norvegicus [15] and with Rattus norvegicus [16] were 160000 ng·h/mL and 254000 ng·h/mL, respectively. Besides, the dose excreted at 24 h in series [17] is under 1%.

The compound `O=C(O)c1c[nH]c2cc(F)c(-c3ccc([C@H]4CCCCO4)cc3)c(F)c12` displayed a logD in the series “physchem [2]” of 2.

`COc1ccc(-c2cc3c(C(=O)O)c[nH]c3cc2Cl)c(OC)n1` gave a pKa in “physchem [1]” of 4.8. In the series “physchem [2]”, this compound displayed a logD of 2.1.

`COc1ccc(-c2cc3c(C(=O)O)c[nH]c3cc2Cl)cn1`: the pKa in the series “physchem [1]” is 2.4 to 4.9. Moreover, the logD in “physchem [2]” was 1.8.

Regarding `CN(C)c1ccc(-c2cc3c(C(=O)O)c[nH]c3cc2Cl)cn1`, the pKa in the series “physchem [1]” fell in the range of 4.7 to 6.2. In “physchem [2]”, this compound yielded a logD of 1.7.

For `O=C(O)c1c[nH]c2cc(F)c(-c3ccc([C@@H]4CCCCO4)cc3)c(F)c12`, the time of peak concentration (Tmax) in [3] came out at 2 h; in [5], 2.7 h. Moreover, the Vd in [4] came to 0.31 L/kg; in [8], 0.3 L/kg. For the same compound, in series [7], the solubility thermodynamic at 24 h came to 14 µM (≈ 5 µg/mL). Besides, in the series “physchem [1]”, the pKa worked out at 5. The Cmax in [9] amounted to 8180 ng/mL; in series [10] it was 1890 ng/mL. For the same compound, the bioavailability in series [18] came to 26%; in [13], 85%. The AUC(0-t) at 24 h in series [12] stood at 91600 ng·h/mL; in series [14], 35900 ng·h/mL; in series [19], 12800 ng·h/mL; in series [20], 16400 ng·h/mL. Further, the dose excreted at 24 h in the series “in vivo” came out at 1.6%; in series [17], 2.2%. Besides, the logD in the series “physchem [2]” was 1.9.

The values above are taken from ChEMBL document CHEMBL4020835, “Optimization of Metabolic and Renal Clearance in a Series of Indole Acid Direct Activators of 5'-Adenosine Monophosphate-Activated Protein Kinase (AMPK)” (J Med Chem, 2018).
